In ChEMBL document CHEMBL5712895, “PRC2 Is Dispensable in Vivo for β-Catenin-Mediated Repression of Chondrogenesis in the Mouse Embryonic Cranial Mesenchyme” (G3 (Bethesda), 2018):
The source made the active and inactive calls. The rule behind the calls is not given here.

Key:
[1] = target: Histone-lysine N-methyltransferase EZH2 (Mus musculus) (UniProt Q61188); experiment: Inhibition of EZH2 in mouse primary cranial mesenchyme ectoderm fibroblast assessed as reduction in H3K27me3 protein level at 500 to 2000 nM by Western blotting analysis; conditions: dose 500-2000 nM
[2] = target: Histone-lysine N-methyltransferase EZH2 (Mus musculus) (UniProt Q61188); experiment: Inhibition of EZH2 in mouse primary cranial mesenchyme ectoderm fibroblast assessed as increase in Sox9 mRNA level by qPCR analysis
[3] = target: Histone-lysine N-methyltransferase EZH2 (Homo sapiens, UniProt Q15910); experiment: Inhibition of EZH2 (unknown origin)
[4] = target: T1, Histone-lysine N-methyltransferase EZH1 (Homo sapiens, UniProt Q92800); experiment: Inhibition of EZH1 (unknown origin)
T1 sequence (Q92800 whole entry): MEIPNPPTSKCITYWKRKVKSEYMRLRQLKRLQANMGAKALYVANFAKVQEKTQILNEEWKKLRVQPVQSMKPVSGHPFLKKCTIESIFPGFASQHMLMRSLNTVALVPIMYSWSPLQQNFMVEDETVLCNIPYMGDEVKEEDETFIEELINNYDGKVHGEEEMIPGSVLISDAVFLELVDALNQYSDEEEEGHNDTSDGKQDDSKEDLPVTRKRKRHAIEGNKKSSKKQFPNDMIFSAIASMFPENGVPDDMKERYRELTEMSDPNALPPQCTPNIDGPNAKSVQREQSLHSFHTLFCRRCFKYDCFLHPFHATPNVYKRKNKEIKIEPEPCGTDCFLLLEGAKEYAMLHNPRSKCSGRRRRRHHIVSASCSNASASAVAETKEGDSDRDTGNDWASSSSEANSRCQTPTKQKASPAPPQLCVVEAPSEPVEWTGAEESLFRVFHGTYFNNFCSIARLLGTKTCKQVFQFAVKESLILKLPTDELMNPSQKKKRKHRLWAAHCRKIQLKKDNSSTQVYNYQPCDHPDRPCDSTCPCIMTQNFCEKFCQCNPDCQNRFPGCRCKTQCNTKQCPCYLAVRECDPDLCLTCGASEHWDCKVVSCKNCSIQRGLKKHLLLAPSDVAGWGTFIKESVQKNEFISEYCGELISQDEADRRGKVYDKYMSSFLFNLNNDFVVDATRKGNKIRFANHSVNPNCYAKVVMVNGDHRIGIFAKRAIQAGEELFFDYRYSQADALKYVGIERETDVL

[5] = target: Histone-lysine N-methyltransferase EZH2 (Mus musculus) (UniProt Q61188); experiment: Inhibition of EZH2 in mouse primary cranial mesenchyme ectoderm fibroblast assessed as reduction in H3K27me3 protein level at 150 to 2000 nM by Western blotting analysis; conditions: dose 150-2000 nM

Sequence of Histone-lysine N-methyltransferase EZH2 (Mus musculus) (Q61188 whole entry): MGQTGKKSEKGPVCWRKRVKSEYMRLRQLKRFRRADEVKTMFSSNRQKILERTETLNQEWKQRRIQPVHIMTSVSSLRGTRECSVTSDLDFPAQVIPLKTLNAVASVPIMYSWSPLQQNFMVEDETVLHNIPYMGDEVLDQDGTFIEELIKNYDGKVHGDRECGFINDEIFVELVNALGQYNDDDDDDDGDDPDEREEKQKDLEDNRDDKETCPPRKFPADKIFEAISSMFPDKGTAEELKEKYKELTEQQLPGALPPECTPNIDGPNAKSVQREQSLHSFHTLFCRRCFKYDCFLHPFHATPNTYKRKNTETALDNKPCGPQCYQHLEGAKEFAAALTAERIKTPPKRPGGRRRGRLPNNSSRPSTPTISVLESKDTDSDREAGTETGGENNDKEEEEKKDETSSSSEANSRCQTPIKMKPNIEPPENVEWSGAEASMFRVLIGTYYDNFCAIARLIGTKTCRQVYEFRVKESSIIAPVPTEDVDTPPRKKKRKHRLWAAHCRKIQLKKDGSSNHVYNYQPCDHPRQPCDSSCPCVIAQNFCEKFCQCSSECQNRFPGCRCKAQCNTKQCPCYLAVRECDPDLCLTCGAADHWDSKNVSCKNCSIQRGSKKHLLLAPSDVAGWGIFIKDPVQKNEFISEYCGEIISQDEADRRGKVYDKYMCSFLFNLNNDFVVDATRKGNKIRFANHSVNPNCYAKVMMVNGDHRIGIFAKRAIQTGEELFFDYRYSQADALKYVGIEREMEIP
Sequence of Histone-lysine N-methyltransferase EZH2 (Q15910 whole entry): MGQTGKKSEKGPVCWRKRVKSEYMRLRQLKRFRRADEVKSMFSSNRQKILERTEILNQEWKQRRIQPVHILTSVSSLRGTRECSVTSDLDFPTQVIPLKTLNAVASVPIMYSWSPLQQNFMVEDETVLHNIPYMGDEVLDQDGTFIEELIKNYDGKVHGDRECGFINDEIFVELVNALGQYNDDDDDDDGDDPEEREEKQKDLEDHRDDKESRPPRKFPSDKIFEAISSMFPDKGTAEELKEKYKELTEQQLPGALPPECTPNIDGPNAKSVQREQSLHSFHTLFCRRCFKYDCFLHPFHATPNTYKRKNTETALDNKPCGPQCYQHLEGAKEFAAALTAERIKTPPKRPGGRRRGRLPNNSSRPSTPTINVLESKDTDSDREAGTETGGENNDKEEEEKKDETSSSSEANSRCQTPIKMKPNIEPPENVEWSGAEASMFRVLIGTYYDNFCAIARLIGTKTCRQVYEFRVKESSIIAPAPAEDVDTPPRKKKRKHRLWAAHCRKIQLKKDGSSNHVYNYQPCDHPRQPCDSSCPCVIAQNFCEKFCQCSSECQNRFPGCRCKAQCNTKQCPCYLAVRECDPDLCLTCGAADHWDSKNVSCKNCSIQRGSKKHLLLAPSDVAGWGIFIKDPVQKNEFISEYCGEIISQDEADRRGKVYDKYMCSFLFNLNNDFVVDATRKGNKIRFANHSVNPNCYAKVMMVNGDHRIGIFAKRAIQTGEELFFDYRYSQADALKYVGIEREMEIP

| Compound | inhibition [1] | inhibition [2] | IC50 [3] [nM] | IC50 [4] [nM] | inhibition [5] |
| --- | --- | --- | --- | --- | --- |
| CCCc1cc(C)[nH]c(=O)c1CNC(=O)c1cc(-c2ccc(N3CCN(C(C)C)CC3)nc2)cc2c1cnn2C(C)C | Active | inactive | < 10 |  |  |
| CC[C@H](C)n1cc(C)c2c(C(=O)NCc3c(C)cc(C)[nH]c3=O)cc(-c3ccc(N4CCNCC4)nc3)cc21 [GSK2816126] |  | inactive |  | 75 | Active |
